The source of these data is patent US4697022A, “Process for the preparation of optically-active carbazole derivatives, new R- and S-carbazole derivatives and pharmaceutical compositions containing these compounds” (Boehringer Mannheim GmbH, priority 1983, dated 1987).

For one experiment, the system named is isoprenaline tachycardia. The experiment can be described thus: β-blocking action: inhibition of isoprenaline tachycardia in awake rabbits. The class given is in vivo, rabbit. The note with it: for ED50: Oryctolagus cuniculus, iv, 50% inhibiting dosage, isoprenaline tachycardia, purity >99.4%, read-out: β-blockade ED50%; for β-blocking properties: in words.
Experiment [1] has as its system blood vessels (blood pressure). Nature of the experiment: vasodilation: direct blood pressure lowering after a single i.v. administration in awake spontaneously hypertonic rats (SHR). In kind it is in vivo, rat (spontaneously hypertonic. The following applies: for ED (30 mmHg): Rattus norvegicus, iv, dosage for lowering of blood pressure by 30 mm.Hg, awake SHR, single i.v. administration, purity >99.4%. The procedure:
(measured as direct blood pressure lowering after a single administration)
In awake, spontaneously hypertonic rats (SHR), catheters were implanted in the arteria femoralis and the vena jugularis. Via the veins, there were injected appropriate dosages of the enantiomers (R-carvedilol and S-carvedilol in dosages of 0.03; 0.1; 0.3; 1.0 and 3 mg/kg. i.v.) and the arterial blood pressure lowering was determined via the arterial pressure catheter (as an expression of the vasodilation). As a measure of the antihypertensive effect, there were calculated the dosages for lowering of the blood pressure by 30 mm.Hg.

Turning to `COc1ccccc1OCCNC[C@@H](O)COc1cccc2[nH]c3ccccc3c12` [R-carvedilol, R-(+)-(1-Carbazol-4-yloxy)-3-[2-(2-methoxyphenoxy)]ethylaminopropan-2-ol], the 50% effective dose (ED50) in the experiment on isoprenaline tachycardia (awake rabbits, i.v.) is 3.98 mg/kg. Besides, the “β-blockade: difference factor of the dosages of R- and S-carvedilol” value with isoprenaline tachycardia (ratio of ED50% R-carvedilol to S-carvedilol, i.v., awake rabbits) is listed as 160. This compound returned an ED (30 mmHg) in experiment [1] of 2.96 mg/kg. In addition, in experiment [1] (ratio of ED-30mmHg R-carvedilol to S-carvedilol, i.v., SHR), the “vasodilation: difference factor of the dosages of R- and S-carvedilol” value was determined as 11.

In the case of `COc1ccccc1OCCNC[C@H](O)COc1cccc2[nH]c3ccccc3c12` [S-carvedilol, S-(-)-(1-Carbazol-4-yloxy)-3-[2-(2-methoxyphenoxy)]ethylaminopropan-2-ol], the 50% effective dose (ED50) with isoprenaline tachycardia (awake rabbits, i.v.) amounted to 0.025 mg/kg. The β-blocking properties result with isoprenaline tachycardia is listed as “practically only S-carvedilol can be regarded as being a β-blocker”; in the experiment on isoprenaline tachycardia (listed as Example 8) it was “displays β-blocking properties”. Besides, the ED (30 mmHg) in experiment [1] was 0.27 mg/kg. Further, the “dosage for blood pressure lowering of 30 mm.Hg in comparison to β-blockade (times higher)” value in experiment [1] (S-carvedilol, ED-30mmHg vs β-blockade ED50%) is reported as “about 10 times”.
